According to US20100061969A1, “DIETARY SUPPLEMENT, ANTI-FATIGUE AGENT OR PHYSICAL ENDURANCE ENHANCER, FUNCTIONAL FOOD, OR COSMETIC” (ASAHI KASEI PHARMA CORPORATION, priority 2006, published 2010):

Tests used:
[1] = test system: male Slc:ddY mice; experiment: Test of anti-fatigue effect and physical endurance-enhancing effect (forced swimming with weight); type: in vivo, mouse; details: weight 8.5% of body weight
Source text: The following method can determine whether the functional food, or anti-fatigue agent and/or physical endurance enhancer, which contains the composition of the present invention, has an anti-fatigue effect or not and physical endurance-enhancing effect or not. That is, the effect of the present invention can be determined as follows: after preliminarily feeding, attaching a weight, which is equivalent to 8.5% of the body weight of each mouse, to each mouse in a group subjected to forced oral administration with an anti-fatigue agent containing the composition of the present invention (administered group) and to each mouse in a group administered with no agent (non-administration group) three weeks after administration; forcing the mice to swim; measuring a time until the head (nose) of each mouse completely sinks in water for 7 seconds due to distress; and comparing the results between the administered group and the non-administration group.
Six-week-old male Slc:ddY mice (Charles river laboratories Japan, Inc.) were preliminarily fed for 7 days and divided into four groups each including 10 mice.
The groups include: the group administered with water (control); the group administered with oxidized coenzyme Q10 at 50 mg/kg/day (Comparative Example 1, group administered with only CoQ10); the group administered with phosphatidylinositol at 100 mg/kg/day (Comparative Example 2, group administered with only phosphatidylinositol); and the group administered with oxidized coenzyme Q10 at 50 mg/kg/day and phosphatidylinositol at 100 mg/kg/day at the same time (Test Example, group administered with CoQ10+phosphatidylinositol), and forced oral administration was performed under the above-mentioned administration conditions five days a week. Three weeks after the administration, a weight was attached to each mouse (the weight is 8.5% of the body weight of the mouse), and the mouse was forced to swim. Then, a time until the head (nose) of the mouse completely sank for 7 seconds due to distress was measured. Note that, the oxidized coenzyme Q10 and phosphatidylinositol in Test Example were simultaneously administered.

[2] = Coenzyme Q10 concentration in blood after forced oral administration (HPLC of plasma); type: in vivo, rat; details: rats; for Average value of total CoQ10 concentration in blood: group = 1 week pre-administration
Procedure: Seven-week-old male Slc:SD rats were preliminarily fed for 7 days, and forced oral administration (repeated oral administration) was performed for 4 rats with phosphatidylinositol at 100 mg/kg/day for 1 week. Then, forced oral administration was performed with phosphatidylinositol at 100 mg/kg/day and oxidized coenzyme Q10 at 100 mg/kg/day at the same time (PI-administered group). 0, 2, 4, and 6 hours after the forced oral administration with both phosphatidylinositol and coenzyme Q10, the whole blood was collected from the postcaval vein using heparinized injection needles and syringes under diethyl ether anesthesia. Collected blood was immediately centrifuged (4° C., 3,000 rpm, 10 minutes) to separate plasma. The separated plasma samples were used for an analysis of coenzyme Q10 by HPLC. As comparative examples, the above-mentioned procedures were performed for the group which was subjected to forced oral administration (repeated oral administration) with soybean lecithin at 500 mg/kg/day (100 mg/kg/day in terms of phosphatidylinositol) instead of phosphatidylinositol for 1 week and then to forced oral administration with both phosphatidylinositol at 100 mg/kg/day and oxidized coenzyme Q10 at 100 mg/kg/day at the same time (soybean lecithin-administered group), and the group which was subjected to forced oral administration with both phosphatidylinositol at 100 mg/kg/day and oxidized coenzyme Q10 at 100 mg/kg/day simultaneously without preliminary administration of phosphatidylinositol (PI non-administration group).

[3] = Week 3, forced oral administration five days a week

Average value of total CoQ10 concentration in blood ([2]; 0 hr after oral PI 100 mg/kg + oxidized CoQ10 100 mg/kg) [nM]	Average value of total CoQ10 concentration in blood ([2]; 2 hr after oral PI 100 mg/kg + oxidized CoQ10 100 mg/kg)	Average value of total CoQ10 concentration in blood ([2]; 4 hr after oral PI 100 mg/kg + oxidized CoQ10 100 mg/kg)	Average value of total CoQ10 concentration in blood ([2]; 6 hr after oral PI 100 mg/kg + oxidized CoQ10 100 mg/kg) [nM]	coenzyme Q10 concentrations in blood compared with the PI non-administration group ([2]; 1 week pre-administration)	Molecule	Swimming time (average) ([1]; Week 0, 10 mice per group) [s]	Swimming time (average) [1, 3] [s]
–	–	–	–	–	COC1=C(OC)C(=O)C(C/C=C(\C)CC/C=C(\C)CC/C=C(\C)CC/C=C(\C)CC/C=C(\C)CC/C=C(\C)CC/C=C(\C)CC/C=C(\C)CC/C=C(\C)CCC=C(C)C)=C(C)C1=O [CoQ10, oxidized coenzyme Q10, reference compound]	214	358
70	1,983 nM	1,927 nM	686	higher	phosphatidylinositol	212	333
